Data set [1] can be described thus: (§1) Positive inotropic effect in rabbit left atrium assessed as increase in stroke volume at 3 x 10^-5 M measured for 2 mins relative to control. In kind it is functional, Oryctolagus cuniculus, Cardiac atrium.
Data set [2] is filed under the species Oryctolagus cuniculus. Kind of data set: Chronotropic effect in rabbit heart assessed as change in heart rate at 3 x 10^-5 M by electrocardiogram analysis relative to control. In kind it is ADME, organism-based. The following applies: in vivo, 30 µM.
Data set [3] can be described thus: Ratio of compound activity to milrinone activity for increase in stroke volume in rabbit left atrium at 3 x 10^-5 M. In kind it is functional, Oryctolagus cuniculus, Cardiac atrium.
The species named for data set [4] is Oryctolagus cuniculus. Description: Positive inotropic effect in rabbit left atrium assessed as increase in stroke volume at 1 x 10^-4 M measured for 2 mins. It counts as functional, tissue-based. Particulars: Cardiac atrium.
The species entered for data set [5] is Oryctolagus cuniculus. The description is as §1. The following applies: Cardiac atrium. In kind it is functional.

Calls of active or inactive are those of the source. No cut-off for these calls is given here.

With `O=C(CN1CCN(Cc2ccc(F)cc2)CC1)Nc1ccc2c(c1)CCc1nnc(-c3cccc(Cl)c3)n1-2`, the Activity in data set [1] is listed as 16.49%; in data set [2], “Non-toxic”. For the compound `O=C(CN1CCN(Cc2ccccc2F)CC1)Nc1ccc2c(c1)CCc1nnc(-c3ccccc3Cl)n1-2`, the Activity in data set [1] turned out to be 2.39%. For the compound `O=C(CN1CCN(Cc2ccc(F)cc2)CC1)Nc1ccc2c(c1)CCc1nnc(-c3ccccc3Cl)n1-2`, in data set [1], the Activity turned out to be 4.58%.

Consider `O=C(CN1CCN(Cc2ccccc2F)CC1)Nc1ccc2c(c1)CCc1nnc(-c3cccc(Cl)c3)n1-2`, for which the Activity in data set [1] is listed as 20.29%; in data set [2], “Non-toxic”. The Ratio in data set [3] turned out to be 8.2. The result in data set [4] was Active. With `CCCCCCCCN1CCN(CC(=O)Nc2ccc3c(c2)CCc2nnc(-c4cccc(Cl)c4)n2-3)CC1`, the result in data set [5] was inactive. Regarding `COc1ccc(CN2CCN(CC(=O)Nc3ccc4c(c3)CCc3nnc(-c5ccccc5Cl)n3-4)CC2)cc1`, the Activity in data set [1] is on record as 9.12%. Turning to `O=C(CN1CCN(Cc2ccccc2)CC1)Nc1ccc2c(c1)CCc1nnc(-c3ccccc3Cl)n1-2`, the Activity in data set [1] is reported as 15.62%; in data set [2], “Non-toxic”. Turning to `O=C(CN1CCN(Cc2cccc(Br)c2)CC1)Nc1ccc2c(c1)CCc1nnc(-c3cccc(Cl)c3)n1-2`, the result in data set [5] was inactive.

With `CCCCN1CCN(CC(=O)Nc2ccc3c(c2)CCc2nnc(-c4cccc(Cl)c4)n2-3)CC1`, the Activity in data set [1] is 2.33%. Same read-out and setting: the same measure for `CCCCCN1CCN(CC(=O)Nc2ccc3c(c2)CCc2nnc(-c4cccc(Cl)c4)n2-3)CC1`: 0.8%. Regarding `O=C(CN1CCN(Cc2ccc(Cl)c(Cl)c2)CC1)Nc1ccc2c(c1)CCc1nnc(-c3cccc(Cl)c3)n1-2`, in data set [5], the outcome was inactive. For the compound `O=C(CN1CCN(Cc2cccc(F)c2)CC1)Nc1ccc2c(c1)CCc1nnc(-c3cccc(Cl)c3)n1-2`, in data set [1], the Activity worked out at 6.33%. `O=C(CN1CCN(Cc2ccccc2)CC1)Nc1ccc2c(c1)CCc1nnc(-c3cccc(Cl)c3)n1-2`: the Activity in data set [1] is reported as 8.07%.

On to `O=C(CN1CCN(Cc2cccc(Cl)c2)CC1)Nc1ccc2c(c1)CCc1nnc(-c3cccc(Cl)c3)n1-2`, for which the Activity in data set [1] was 15.75%; in data set [2], “Toxic”.

As to `CCCCCCN1CCN(CC(=O)Nc2ccc3c(c2)CCc2nnc(-c4cccc(Cl)c4)n2-3)CC1`, the result in data set [5] was inactive. As to `O=C(CN1CCN(Cc2ccccc2Br)CC1)Nc1ccc2c(c1)CCc1nnc(-c3cccc(Cl)c3)n1-2`, in data set [5], the result was inactive. On to `O=C(CN1CCN(Cc2ccccc2Cl)CC1)Nc1ccc2c(c1)CCc1nnc(-c3cccc(Cl)c3)n1-2`, for which the Activity in data set [1] was 0.8%. `O=C(CN1CCN(Cc2ccc(Cl)cc2)CC1)Nc1ccc2c(c1)CCc1nnc(-c3cccc(Cl)c3)n1-2`: the Activity in data set [1] was 7.22%. `COc1ccc(CN2CCN(CC(=O)Nc3ccc4c(c3)CCc3nnc(-c5cccc(Cl)c5)n3-4)CC2)cc1`: the Activity is recorded as 16.84% in data set [1] and “Non-toxic” in data set [2]. In data set [4], the outcome was Active. For `Cc1[nH]c(=O)c(C#N)cc1-c1ccncc1` [MILRINONE], in data set [1], the Activity was 2.46%. With `O=C(CN1CCN(Cc2ccc(Br)cc2)CC1)Nc1ccc2c(c1)CCc1nnc(-c3cccc(Cl)c3)n1-2`, the Activity in data set [1] was determined as 2.31%. `Cc1ccc(CN2CCN(CC(=O)Nc3ccc4c(c3)CCc3nnc(-c5cccc(Cl)c5)n3-4)CC2)cc1`: the Activity in data set [1] is given as 4.25%.

Consider `O=C(CN1CCN(Cc2cccc(Cl)c2)CC1)Nc1ccc2c(c1)CCc1nnc(-c3ccccc3Cl)n1-2`, for which the Activity in data set [1] is 2.18%. As to `O=C(CN1CCN(Cc2ccc(Cl)cc2Cl)CC1)Nc1ccc2c(c1)CCc1nnc(-c3cccc(Cl)c3)n1-2`, the result in data set [5] was inactive.

These data come from ChEMBL document CHEMBL2331142, “Synthesis of new triazole acetamides with inotropic effects” (Bioorg Med Chem Lett, 2013).
